Measurements published in patent publication US8012748B2, “Peripheral nervous system specific sodium channel nucleic acids” (The Research Foundation of State University of New York, priority 1994, dated 2011).

Experiments:
[1] = biological target: DRG sodium channel; settings: cited from earlier work
[2] = biological target: T1, PNS SCP (PN1 sodium channel) in PK1-4 cells (Rattus norvegicus, UniProt O08562); test: (14C) guanidinium flux assay in cells expressing a PNS SCP; type: cell-based
T1 construct: PKI-4 cells express a PNS SCP(PN1) without NGF treatment; endogenous in cells
T1 sequence (O08562 whole entry): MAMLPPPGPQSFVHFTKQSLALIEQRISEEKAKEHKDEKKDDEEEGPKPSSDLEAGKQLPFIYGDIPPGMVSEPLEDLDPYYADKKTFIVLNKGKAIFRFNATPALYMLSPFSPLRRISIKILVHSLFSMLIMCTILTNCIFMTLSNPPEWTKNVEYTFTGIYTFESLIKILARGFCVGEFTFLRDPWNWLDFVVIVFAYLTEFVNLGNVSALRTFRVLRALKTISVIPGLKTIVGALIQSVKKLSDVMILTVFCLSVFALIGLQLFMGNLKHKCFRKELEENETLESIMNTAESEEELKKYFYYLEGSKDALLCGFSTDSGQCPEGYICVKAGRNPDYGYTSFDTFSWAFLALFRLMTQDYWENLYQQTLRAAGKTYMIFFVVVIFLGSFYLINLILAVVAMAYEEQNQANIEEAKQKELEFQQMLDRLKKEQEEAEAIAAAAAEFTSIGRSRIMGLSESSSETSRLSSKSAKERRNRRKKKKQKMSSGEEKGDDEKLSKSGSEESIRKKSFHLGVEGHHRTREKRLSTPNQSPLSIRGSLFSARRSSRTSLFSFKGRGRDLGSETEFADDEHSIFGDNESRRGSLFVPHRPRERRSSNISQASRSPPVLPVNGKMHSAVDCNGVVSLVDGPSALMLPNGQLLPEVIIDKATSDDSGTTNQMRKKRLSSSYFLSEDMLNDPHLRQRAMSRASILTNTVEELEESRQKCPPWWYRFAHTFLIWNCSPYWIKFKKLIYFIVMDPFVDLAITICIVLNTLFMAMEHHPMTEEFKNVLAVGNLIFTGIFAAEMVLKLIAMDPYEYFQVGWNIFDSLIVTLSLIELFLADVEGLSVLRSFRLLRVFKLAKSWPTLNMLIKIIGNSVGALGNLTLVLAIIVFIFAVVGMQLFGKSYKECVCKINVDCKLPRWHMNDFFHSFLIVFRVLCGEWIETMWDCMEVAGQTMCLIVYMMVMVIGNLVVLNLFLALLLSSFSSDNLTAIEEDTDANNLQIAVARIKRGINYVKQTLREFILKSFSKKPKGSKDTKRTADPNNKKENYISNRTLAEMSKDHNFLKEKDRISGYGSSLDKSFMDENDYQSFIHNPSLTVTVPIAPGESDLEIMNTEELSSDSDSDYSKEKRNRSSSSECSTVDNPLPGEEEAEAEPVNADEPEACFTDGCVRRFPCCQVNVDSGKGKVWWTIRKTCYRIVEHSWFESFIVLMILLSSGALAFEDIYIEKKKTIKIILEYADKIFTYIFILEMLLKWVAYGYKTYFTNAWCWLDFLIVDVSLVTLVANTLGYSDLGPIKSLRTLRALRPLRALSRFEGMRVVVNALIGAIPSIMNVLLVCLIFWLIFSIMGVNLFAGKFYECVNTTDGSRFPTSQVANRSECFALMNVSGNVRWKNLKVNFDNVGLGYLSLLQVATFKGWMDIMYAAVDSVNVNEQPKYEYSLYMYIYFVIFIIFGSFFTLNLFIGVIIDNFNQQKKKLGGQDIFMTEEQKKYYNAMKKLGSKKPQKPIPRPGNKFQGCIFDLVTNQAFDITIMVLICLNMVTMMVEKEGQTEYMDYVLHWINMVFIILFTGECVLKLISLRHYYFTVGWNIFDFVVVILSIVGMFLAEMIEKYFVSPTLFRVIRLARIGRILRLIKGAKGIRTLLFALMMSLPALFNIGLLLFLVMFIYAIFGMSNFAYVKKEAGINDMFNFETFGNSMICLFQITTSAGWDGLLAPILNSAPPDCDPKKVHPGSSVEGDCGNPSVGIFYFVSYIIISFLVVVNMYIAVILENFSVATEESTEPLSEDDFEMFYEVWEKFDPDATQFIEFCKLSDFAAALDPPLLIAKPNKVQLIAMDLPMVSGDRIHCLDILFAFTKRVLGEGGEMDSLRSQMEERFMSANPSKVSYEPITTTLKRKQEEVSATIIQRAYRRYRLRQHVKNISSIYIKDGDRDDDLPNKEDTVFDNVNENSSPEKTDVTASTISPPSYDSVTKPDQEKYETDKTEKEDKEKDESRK

NC1=N[C@H](O)[C@H]2[C@H]3O[C@]4(O)O[C@@H]([C@@H](O)[C@@]2(N1)[C@@H]4O)[C@]3(O)CO [TTX, tetrodotoxin]
kD for TTX of the DRG channel relative to the kD of sodium channels in skeletal muscle or heart [1]: approximately tenfold higher

Cc1cccc(C)c1NC(=O)CN1CCN(CCCC(c2ccc(F)cc2)c2ccc(F)cc2)CC1 [lidoflazine]
inhibition of sodium channel activity of at least one PNS SCP ([2]; cell lines expressing at least one PNS SCP (PC12, PK1-4 and other isolated or recombinant cells)): found to inhibit sodium channel activity
IC50 ([2]; guanidinium flux assay, PK1-4 cells, read-out: for inhibition of sodium channel activity (converted)): 309 nM
